ChEMBL document CHEMBL1201861, “Genomics of Drug Sensitity in Cancer screening data, Wellcome Trust Sanger Institute”

Assays:
Test in all cases: cells
CaR-1 = type: functional, cell-based, Homo sapiens
Description: SANGER: Inhibition of human CaR-1 cell growth in a cell viability assay.

D-542MG = type: functional, cell-based, Homo sapiens
Description: SANGER: Inhibition of human D-542MG cell growth in a cell viability assay.

G-401 = type: functional, cell-based, Homo sapiens
Description: SANGER: Inhibition of human G-401 cell growth in a cell viability assay.

GMS-10 = type: functional, cell-based, Homo sapiens
Description: SANGER: Inhibition of human GMS-10 cell growth in a cell viability assay.

HCC1937 = type: functional, cell-based, Homo sapiens
Description: SANGER: Inhibition of human HCC1937 cell growth in a cell viability assay.

HT1197 = type: functional, cell-based, Homo sapiens, HT-1197
Description: SANGER: Inhibition of human HT-1197 cell growth in a cell viability assay.

HTC-C3 = type: functional, cell-based, Homo sapiens
Description: SANGER: Inhibition of human HTC-C3 cell growth in a cell viability assay.

JIYOYE = type: functional, cell-based, Homo sapiens
Description: SANGER: Inhibition of human JiyoyeP-2003 cell growth in a cell viability assay.

KMS-12-PE = type: functional, cell-based, Homo sapiens
Description: SANGER: Inhibition of human KMS-12-PE cell growth in a cell viability assay.

KU-19-19 = type: functional, cell-based, Homo sapiens
Description: SANGER: Inhibition of human KU-19-19 cell growth in a cell viability assay.

KYSE-410 = type: functional, cell-based, Homo sapiens
Description: SANGER: Inhibition of human KYSE-410 cell growth in a cell viability assay.

MC-IXC = type: functional, cell-based, Homo sapiens
Description: SANGER: Inhibition of human MC-IXC cell growth in a cell viability assay.

MEL-JUSO = type: functional, cell-based, Homo sapiens
Description: SANGER: Inhibition of human MEL-JUSO cell growth in a cell viability assay.

MKN-1 = type: functional, cell-based, Homo sapiens
Description: SANGER: Inhibition of human MKN1 cell growth in a cell viability assay.

MeWo = type: functional, cell-based, Homo sapiens
Description: SANGER: Inhibition of human Mewo cell growth in a cell viability assay.

NCI-H1522 = type: functional, cell-based, Homo sapiens
Description: SANGER: Inhibition of human NCI-H1522 cell growth in a cell viability assay.

NCI-H1792 = type: functional, cell-based, Homo sapiens
Description: SANGER: Inhibition of human NCI-H1792 cell growth in a cell viability assay.

NCI-H2009 = type: functional, cell-based, Homo sapiens
Description: SANGER: Inhibition of human NCI-H2009 cell growth in a cell viability assay.

NCI-H322M = type: functional, cell-based, Homo sapiens
Description: SANGER: Inhibition of human NCI-H322M cell growth in a cell viability assay.

NCI-H441 = type: functional, cell-based, Homo sapiens
Description: SANGER: Inhibition of human NCI-H441 cell growth in a cell viability assay.

NCI-H716 = type: functional, cell-based, Homo sapiens
Description: SANGER: Inhibition of human NCI-H716 cell growth in a cell viability assay.

OAW-28 = type: functional, cell-based, Homo sapiens
Description: SANGER: Inhibition of human OAW-28 cell growth in a cell viability assay.

PANC-08-13 = type: functional, cell-based, Homo sapiens
Description: SANGER: Inhibition of human PANC-08-13 cell growth in a cell viability assay.

RL = type: functional, cell-based, Homo sapiens
Description: SANGER: Inhibition of human RL cell growth in a cell viability assay.

RPMI-2650 = type: functional, cell-based, Homo sapiens
Description: SANGER: Inhibition of human RPMI-2650 cell growth in a cell viability assay.

SBC-5 = type: functional, cell-based, Homo sapiens
Description: SANGER: Inhibition of human SBC-5 cell growth in a cell viability assay.

SK-LU-1 = type: functional, cell-based, Homo sapiens
Description: SANGER: Inhibition of human SK-LU-1 cell growth in a cell viability assay.

SK-MEL-30 = type: functional, cell-based, Homo sapiens
Description: SANGER: Inhibition of human SK-MEL-30 cell growth in a cell viability assay.

SW48 = type: functional, cell-based, Homo sapiens
Description: SANGER: Inhibition of human SW48 cell growth in a cell viability assay.

SW756 = type: functional, cell-based, Homo sapiens
Description: SANGER: Inhibition of human SW756 cell growth in a cell viability assay.

T84 = type: functional, cell-based, Homo sapiens
Description: SANGER: Inhibition of human T84 cell growth in a cell viability assay.

T98G = type: functional, cell-based, Homo sapiens
Description: SANGER: Inhibition of human T98G cell growth in a cell viability assay.

23132-87 = type: functional, cell-based, Homo sapiens
Description: SANGER: Inhibition of human 23132-87 cell growth in a cell viability assay.

647-V = type: functional, cell-based, Homo sapiens
Description: SANGER: Inhibition of human 647-V cell growth in a cell viability assay.

A2780 = type: functional, cell-based, Homo sapiens
Description: SANGER: Inhibition of human A2780 cell growth in a cell viability assay.

ASPC1 = type: functional, cell-based, Homo sapiens
Description: SANGER: Inhibition of human AsPC-1 cell growth in a cell viability assay.

BPH-1 = type: functional, cell-based, Homo sapiens
Description: SANGER: Inhibition of human BPH-1 cell growth in a cell viability assay.

CA46 = type: functional, cell-based, Homo sapiens
Description: SANGER: Inhibition of human CA46 cell growth in a cell viability assay.

CAL-120 = type: functional, cell-based, Homo sapiens
Description: SANGER: Inhibition of human CAL-120 cell growth in a cell viability assay.

UO-31 = type: functional, cell-based, Homo sapiens
Description: SANGER: Inhibition of human U031 cell growth in a cell viability assay.

UACC-62 = type: functional, cell-based, Homo sapiens
Description: SANGER: Inhibition of human UACC-62 cell growth in a cell viability assay.

UMUC3 = type: functional, cell-based, Homo sapiens
Description: SANGER: Inhibition of human UM-UC-3 cell growth in a cell viability assay.

VM-CUB-1 = type: functional, cell-based, Homo sapiens
Description: SANGER: Inhibition of human VM-CUB-1 cell growth in a cell viability assay.

CHP-212 = type: functional, cell-based, Homo sapiens
Description: SANGER: Inhibition of human CHP-212 cell growth in a cell viability assay.

D-336MG = type: functional, cell-based, Homo sapiens; conditions: Homo sapiens, D-336MG
Description: SANGER: Inhibition of human D-336MG cell growth in a cell viability assay.

MOLT-13 = type: functional, cell-based, Homo sapiens; conditions: Homo sapiens, MOLT-13
Description: SANGER: Inhibition of human MOLT-13 cell growth in a cell viability assay.

## CCC/C=C/C=C/C(=O)O[C@H]1/C(=C/C(=O)OC)C[C@H]2C[C@H]([C@@H](C)O)OC(=O)C[C@H](O)C[C@@H]3C[C@H](OC(C)=O)C(C)(C)[C@](O)(C[C@@H]4C/C(=C/C(=O)OC)C[C@H](/C=C/C(C)(C)[C@]1(O)O2)O4)O3 [BRYOSTATIN 1]
CaR-1; Homo sapiens, CaR-1
  IC50: > 0.008 µM
D-542MG; Homo sapiens, D-542MG
  IC50: 0.00756 µM
G-401; Homo sapiens, G-401
  IC50: > 0.008 µM
GMS-10; Homo sapiens, GMS-10
  IC50: > 0.008 µM
HCC1937; Homo sapiens, HCC1937
  IC50: > 0.008 µM
HT1197; Homo sapiens, HT1197
  IC50: > 0.008 µM
HTC-C3; Homo sapiens, HTC-C3
  IC50: > 0.008 µM
JIYOYE; Homo sapiens, JIYOYE
  IC50: > 0.008 µM
KMS-12-PE; Homo sapiens, KMS-12-PE
  IC50: > 0.008 µM
KU-19-19; Homo sapiens, KU-19-19
  IC50: > 0.008 µM
KYSE-410; Homo sapiens, KYSE-410
  IC50: > 0.008 µM
MC-IXC; Homo sapiens, MC-IXC
  IC50: > 0.008 µM
MEL-JUSO; Homo sapiens, MEL-JUSO
  IC50: > 0.008 µM
MKN-1; Homo sapiens, MKN-1
  IC50: > 0.008 µM
MeWo; Homo sapiens, MeWo
  IC50: > 0.008 µM
NCI-H1522; Homo sapiens, NCI-H1522
  IC50: > 0.008 µM
NCI-H1792; Homo sapiens, NCI-H1792
  IC50: > 0.008 µM
NCI-H2009; Homo sapiens, NCI-H2009
  IC50: > 0.008 µM
NCI-H322M; Homo sapiens, NCI-H322M
  IC50: > 0.008 µM
NCI-H441; Homo sapiens, NCI-H441
  IC50: > 0.008 µM
NCI-H716; Homo sapiens, NCI-H716
  IC50: > 0.008 µM
OAW-28; Homo sapiens, OAW-28
  IC50: > 0.008 µM
PANC-08-13; Homo sapiens, PANC-08-13
  IC50: > 0.008 µM
RL; Homo sapiens, RL
  IC50: > 0.008 µM
RPMI-2650; Homo sapiens, RPMI-2650
  IC50: > 0.008 µM
SBC-5; Homo sapiens, SBC-5
  IC50: > 0.008 µM
SK-LU-1; Homo sapiens, SK-LU-1
  IC50: > 0.008 µM
SK-MEL-30; Homo sapiens, SK-MEL-30
  IC50: > 0.008 µM
SW48; Homo sapiens, SW48
  IC50: > 0.008 µM
SW756; Homo sapiens, SW756
  IC50: > 0.008 µM
T84; Homo sapiens, T84
  IC50: > 0.008 µM
T98G; Homo sapiens, T98G
  IC50: > 0.008 µM
23132-87; Homo sapiens
  IC50: > 0.008 µM
647-V; Homo sapiens, 647-V
  IC50: > 0.008 µM
A2780; Homo sapiens, A2780
  IC50: > 0.008 µM
ASPC1; Homo sapiens, ASPC1
  IC50: > 0.008 µM
BPH-1; Homo sapiens, BPH-1
  IC50: 0.00603 µM
CA46; Homo sapiens, CA46
  IC50: > 0.008 µM
CAL-120; Homo sapiens, CAL-120
  IC50: > 0.008 µM
UO-31; Homo sapiens, UO-31
  IC50: > 0.008 µM
UACC-62; Homo sapiens, UACC-62
  IC50: > 0.008 µM
UMUC3; Homo sapiens, UMUC3
  IC50: > 0.008 µM
VM-CUB-1; Homo sapiens, VM-CUB-1
  IC50: > 0.008 µM
CHP-212; Homo sapiens, CHP-212
  IC50: > 0.008 µM

## COc1cc2ncn(-c3cc(OCc4ccccc4C(F)(F)F)c(C(N)=O)s3)c2cc1OC [GW843682X]
D-336MG
  IC50: > 0.256 µM
JIYOYE; Homo sapiens, JIYOYE
  IC50: 0.148 µM
KMS-12-PE; Homo sapiens, KMS-12-PE
  IC50: > 0.256 µM
MOLT-13
  IC50: 0.0121 µM
NCI-H1522; Homo sapiens, NCI-H1522
  IC50: > 0.256 µM
NCI-H322M; Homo sapiens, NCI-H322M
  IC50: > 0.256 µM
NCI-H716; Homo sapiens, NCI-H716
  IC50: > 0.256 µM
RL; Homo sapiens, RL
  IC50: > 0.256 µM
CA46; Homo sapiens, CA46
  IC50: > 0.256 µM

## Cc1cc([N+](=O)[O-])ccc1NS(=O)(=O)c1cc(Cl)ccc1Cl
CaR-1; Homo sapiens, CaR-1
  IC50: > 32 µM
D-542MG; Homo sapiens, D-542MG
  IC50: 0.277 µM
G-401; Homo sapiens, G-401
  IC50: 0.861 µM
GMS-10; Homo sapiens, GMS-10
  IC50: 20.1 µM
HCC1937; Homo sapiens, HCC1937
  IC50: 6.27 µM
HT1197; Homo sapiens, HT1197
  IC50: 11.2 µM
HTC-C3; Homo sapiens, HTC-C3
  IC50: 3.03 µM
JIYOYE; Homo sapiens, JIYOYE
  IC50: 6.6 µM
KMS-12-PE; Homo sapiens, KMS-12-PE
  IC50: > 32 µM
KU-19-19; Homo sapiens, KU-19-19
  IC50: > 32 µM
KYSE-410; Homo sapiens, KYSE-410
  IC50: 5.83 µM
MC-IXC; Homo sapiens, MC-IXC
  IC50: 2.51 µM
MEL-JUSO; Homo sapiens, MEL-JUSO
  IC50: 5.17 µM
MKN-1; Homo sapiens, MKN-1
  IC50: 4.21 µM
MeWo; Homo sapiens, MeWo
  IC50: 28.6 µM
NCI-H1522; Homo sapiens, NCI-H1522
  IC50: > 32 µM
NCI-H1792; Homo sapiens, NCI-H1792
  IC50: 8.53 µM
NCI-H2009; Homo sapiens, NCI-H2009
  IC50: 2.69 µM
NCI-H322M; Homo sapiens, NCI-H322M
  IC50: > 32 µM
NCI-H441; Homo sapiens, NCI-H441
  IC50: 6.75 µM
NCI-H716; Homo sapiens, NCI-H716
  IC50: > 32 µM
OAW-28; Homo sapiens, OAW-28
  IC50: 24.7 µM
PANC-08-13; Homo sapiens, PANC-08-13
  IC50: > 32 µM
RL; Homo sapiens, RL
  IC50: > 32 µM
RPMI-2650; Homo sapiens, RPMI-2650
  IC50: 1.98 µM
SBC-5; Homo sapiens, SBC-5
  IC50: 1.61 µM
SK-LU-1; Homo sapiens, SK-LU-1
  IC50: 3.27 µM
SK-MEL-30; Homo sapiens, SK-MEL-30
  IC50: 5.76 µM
SW48; Homo sapiens, SW48
  IC50: 2.48 µM
SW756; Homo sapiens, SW756
  IC50: 2.97 µM
T84; Homo sapiens, T84
  IC50: 4.69 µM
T98G; Homo sapiens, T98G
  IC50: 10.6 µM
23132-87; Homo sapiens
  IC50: 3.5 µM
647-V; Homo sapiens, 647-V
  IC50: 3.09 µM
A2780; Homo sapiens, A2780
  IC50: 5.49 µM
ASPC1; Homo sapiens, ASPC1
  IC50: 22.3 µM
BPH-1; Homo sapiens, BPH-1
  IC50: 12.2 µM
CA46; Homo sapiens, CA46
  IC50: 7.16 µM
CAL-120; Homo sapiens, CAL-120
  IC50: 6.02 µM
UO-31; Homo sapiens, UO-31
  IC50: 8.66 µM
UACC-62; Homo sapiens, UACC-62
  IC50: 0.256 µM
UMUC3; Homo sapiens, UMUC3
  IC50: 1.67 µM
VM-CUB-1; Homo sapiens, VM-CUB-1
  IC50: 8.15 µM
CHP-212; Homo sapiens, CHP-212
  IC50: 2.58 µM

## BLEOMYCIN
CaR-1; car-1
  IC50: 4.45 µM
D-542MG; d-542mg
  IC50: 60.3 µM
G-401; g-401
  IC50: 3.29 µM
GMS-10; gms-10
  IC50: 2110 µM
HCC1937; hcc1937
  IC50: 0.000254 µM
HT1197; ht-1197
  IC50: 2.74 µM
HTC-C3; htc-c3
  IC50: 77.8 µM
JIYOYE; jiyoye
  IC50: 3.38 µM
KMS-12-PE; kms-12-pe
  IC50: 2530 µM
KU-19-19; ku-19-19
  IC50: 525 µM
KYSE-410; kyse-410
  IC50: 8.15 µM
MC-IXC; mc-ixc
  IC50: 3 µM
MEL-JUSO; mel-juso
  IC50: 0.109 µM
MKN-1; mkn-1
  IC50: 0.0796 µM
MeWo; mewo
  IC50: 148 µM
NCI-H1522; nci-h1522
  IC50: 2450 µM
NCI-H1792; nci-h1792
  IC50: 2.57 µM
NCI-H2009; nci-h2009
  IC50: 2.56 µM
NCI-H322M; nci-h322m
  IC50: 7320 µM
NCI-H441; nci-h441
  IC50: 9.05 µM
NCI-H716; nci-h716
  IC50: 1420 µM
OAW-28; oaw-28
  IC50: 9.21 µM
PANC-08-13; panc-08-13
  IC50: 12.1 µM
RL; rl
  IC50: 2270 µM
RPMI-2650; rpmi-2650
  IC50: 0.633 µM
SBC-5; sbc-5
  IC50: 0.624 µM
SK-LU-1; sk-lu-1
  IC50: 0.999 µM
SK-MEL-30; sk-mel-30
  IC50: 0.377 µM
SW48; sw48
  IC50: 0.546 µM
SW756; sw756
  IC50: 11.4 µM
T84; t84
  IC50: 13.5 µM
T98G; t98g
  IC50: 63.7 µM
23132-87
  IC50: 0.131 µM
647-V; 647-v
  IC50: 1.73 µM
A2780; a2780
  IC50: 0.22 µM
ASPC1; aspc1
  IC50: 82.5 µM
BPH-1; bph-1
  IC50: 0.0591 µM
CA46; ca46
  IC50: 84.8 µM
CAL-120; cal-120
  IC50: 5.56 µM
UO-31; uo-31
  IC50: 0.934 µM
UACC-62; uacc-62
  IC50: 188 µM
UMUC3; umuc3
  IC50: 0.956 µM
VM-CUB-1; vm-cub-1
  IC50: 4.92 µM
CHP-212; chp-212
  IC50: 0.148 µM
